Measured values: patent US12612386B2, “Heteroaryl-triazole compounds as pesticides” (Bayer Aktiengesellschaft, priority 2020, dated 2026)

Experiments:
Assay type in all cases: in vivo
[1] = test system: adult engorged female ticks (Rhipicephalus microplus); test: Rhipicephalus (Boophilus) microplus injection test; details: 4 μg/animal, egg deposition after 7 days
Method: Rhipicephalus (Boophilus) Microplus—Injection Test
Solvent: dimethyl sulfoxide
To produce a suitable preparation of active compound, 10 mg of active compound are dissolved in 0.5 mL solvent, and the concentrate is diluted with solvent to the desired concentration.
Five adult engorged female ticks (Rhipicephalus microplus) are injected with 1 μL compound solution into the abdomen. The ticks are transferred into replica plates and incubated in a climate chamber.
After 7 days egg deposition of fertile eggs is monitored. Eggs where fertility is not visible are stored in a climate chamber till hatching after about 42 days. An efficacy of 100% means all eggs are infertile; 0% means all eggs are fertile.

[2] = test system: cattle tick larvae (Rhipicephalus microplus), strain Parkhurst, resistant against synthetic pyrethroids; test: Rhipicephalus (Boophilus) microplus in-vitro contact test, larval cattle tick; details: 5 μg/cm^2 (=500 g/ha), after 48 hours
Summary of the method: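 Efficacy is read at 48 h from negative geotactic behaviour after larvae are patted to the tube bottom, expressed as percentage dead or moribund. Larvae (20-50) sit in glass tubes whose walls carry an evaporated acetone film of compound (900 ppm corresponds to 5 μg/cm^2), kept at 27° C., 85% relative humidity.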

[3] = test system: adult mosquitoes Aedes aegypti strain MONHEIM; test: Aedes aegypti test (AEDSAE surface treatment & contact assay); details: 24 hours after contact, read-out: efficacy (mortality)
Summary of the method: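 Compound in acetone containing 2000 ppm rapeseed oil methyl ester applied to a glazed tile and dried; adult mosquitoes exposed on the treated surface for 30 minutes. Percent mortality scored 24 hours after contact (100% = all dead, 0% = none dead).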

Question: How did the “efficacy (infertile eggs)” value [1] turn out when `C[C@H](NC(=O)c1cc(Br)cc(OC(F)(F)F)c1)c1ncnn1-c1cc(C#N)ncn1` [I-1, 3-bromo-N-{(1S)-1-[1-(6-cyanopyrimidin-4-yl)-1H-1,2,4-triazol-5-yl]ethyl}-5-(trifluoromethoxy)benzamide] was run?
Answer: The value was 100%.

Question: And the “efficacy (larvae dead or moribund)” value [2]?
Answer: Its value is 100%.

Question: What about the mortality at 4 mg/m2 ([3]; surface concentration 4 mg/m^2, 30 min exposure) of the same molecule?
Answer: The mortality at 4 mg/m2 was 80 to 100%.

Question: What about the mortality at 20 mg/m2 ([3]; surface concentration 20 mg/m^2, 30 min exposure) of the same molecule?
Answer: The mortality at 20 mg/m2 was 80 to 100%.
